Converted amounts (≈) assume the structure as drawn.

Common to all, as to assay: MIC, broth serial dilution in liquid YNB medium
In one assay the test system is C. albicans ATTC 26278. The assay is classed as cell-based, Candida albicans. Particulars: 30° C., 24 hours; for minimum inhibiting concentration (MIC), C. albicans ATTC 26278: YNB-Difco medium, 200 μg/ml sodium glutamate, 10^5 cells/ml; for minimum inhibiting concentration (MIC) against Candida albicans ATCC 26278: liquid YNB medium, monosodium glutamate 200 μg/ml. The procedure: The antifungal activity of the compounds has been determined by the serial dilution method in a liquid YNB (Yeast Nitrogen Base) medium containing monosodium glutamate at a concentration of 200 μg/ml, with a temperature of 30° C. and an incubation time of 24 hours.
(§1) The minimum inhibiting concentrations (MIC) in mg/ml were determined for the compounds of Examples 1, 2, 7, 8, 12 and 13 against various Candida sp. using the broth serial dilution method of Milewski et al., Drugs Exp. Clin. Res., 1988, 14, 461. A liquid Yeast Nitrogen Base (YNB)-Difco medium containing 200 μg/ml sodium glutamate was used with a content of 10^5 cells/ml at a temperature of 30° C. and with an incubation time of 24 hours.

For another assay, the system named is C. albicans 2043. The assay is classed as cell-based, Candida albicans. Particulars: YNB-Difco medium, 200 μg/ml sodium glutamate, 10^5 cells/ml, 30° C., 24 hours. As for the experimental part:
as §1

For another assay, the system named is C. glabrata. The class given is cell-based, Candida glabrata. Particulars: YNB-Difco medium, 200 μg/ml sodium glutamate, 10^5 cells/ml, 30° C., 24 hours. The procedure: as §1
A further assay has as its system C. krusei. The assay is classed as cell-based, Candida krusei. Particulars: YNB-Difco medium, 200 μg/ml sodium glutamate, 10^5 cells/ml, 30° C., 24 hours. As for the experimental part:
as §1

A further assay relates to C. famata 1940. The assay is classed as cell-based, Candida famata. To be noted: YNB-Difco medium, 200 μg/ml sodium glutamate, 10^5 cells/ml, 30° C., 24 hours. The procedure:
as §1

The mark [1] stands for this setting: listed as N^2 -L-norvalyl-N^3-trans-2,3-epoxysuccinamoyl-L-2,3-diaminopropanoic acid in th.

Turning to `C[C@H](N)C(=O)N[C@@H](CNC(=O)[C@@H]1O[C@H]1C(N)=O)C(=O)O` (racemic) [Ala--DL--EADP, N^2 -L-alanyl-N^3 -DL-trans-2,3-epoxysuccinamoyl-L-2,3-diaminopropanoic acid, reference compound], in the assay on C. albicans ATTC 26278, the “minimum inhibiting concentration (MIC), C. albicans ATTC 26278” value came out at 1200 µg/mL (≈ 4160 µM) and the “minimum inhibiting concentration (MIC) against Candida albicans ATCC 26278” value was found to be 1.2 µg/mL (≈ 4.16 µM). Also, in the assay with C. albicans 2043, the “minimum inhibiting concentration (MIC), C. albicans 2043” value was 1000 µg/mL (≈ 3470 µM). In addition, the “minimum inhibiting concentration (MIC), C. glabrata” value with C. glabrata stood at 1500 µg/mL (≈ 5200 µM).
`CCC[C@H](NC(=O)[C@@H](N)CCCCN)C(=O)N[C@@H](CNC(=O)[C@@H]1O[C@H]1C(N)=O)C(=O)O` (racemic) [Lys--Nva--DL--EADP, N^2 -L-Lysyl-L-norvalyl-N^3 -DL-trans-2,3-epoxysuccinamoyl-L-2,3-diaminopropanoic acid]: the “minimum inhibiting concentration (MIC), C. albicans ATTC 26278” value in the assay on C. albicans ATTC 26278 is 500 µg/mL (≈ 1120 µM). Further, the “minimum inhibiting concentration (MIC), C. albicans 2043” value in the assay on C. albicans 2043 was found to be 500 µg/mL (≈ 1120 µM). For the same molecule, the “minimum inhibiting concentration (MIC), C. krusei” value in the assay with C. krusei stood at 1500 µg/mL (≈ 3370 µM). Further, the “minimum inhibiting concentration (MIC), C. glabrata” value with C. glabrata is 750 µg/mL (≈ 1690 µM). Moreover, in the assay with C. famata 1940, the “minimum inhibiting concentration (MIC), C. famata 1940” value came to 1000 µg/mL (≈ 2250 µM).
Turning to `CCC[C@H](N)C(=O)N[C@@H](CNC(=O)[C@@H]1O[C@H]1C(N)=O)C(=O)O` (relative stereo) [Nva--EADP, N^2 -L-Norvalyl-N^3 -D-trans-2,3-epoxysuccinamoyl-L-2,3-diaminopropanoic acid], the “minimum inhibiting concentration (MIC), C. albicans ATTC 26278” value with C. albicans ATTC 26278 was determined as 150 µg/mL (≈ 474 µM). Moreover, the “minimum inhibiting concentration (MIC) against Candida albicans ATCC 26278” value in the assay on C. albicans ATTC 26278 (setting [1]) was 0.15 µg/mL (≈ 0.474 µM). In addition, the “minimum inhibiting concentration (MIC), C. albicans 2043” value in the assay on C. albicans 2043 turned out to be 100 µg/mL (≈ 316 µM). Also, the “minimum inhibiting concentration (MIC), C. krusei” value in the assay on C. krusei came to 350 µg/mL (≈ 1110 µM). Also, in the assay with C. glabrata, the “minimum inhibiting concentration (MIC), C. glabrata” value is 500 µg/mL (≈ 1580 µM). Also, the “minimum inhibiting concentration (MIC), C. famata 1940” value in the assay on C. famata 1940 was found to be 350 µg/mL (≈ 1110 µM).
`CCC[C@H](NC(=O)[C@@H](N)CNC(=O)[C@@H]1O[C@H]1C(N)=O)C(=O)O` (relative stereo) [EADP--Nva, N^3 -D-trans-2,3-Epoxysuccinamoyl-L-2,3-diaminopropionyl-L-norvaline]: in the assay with C. albicans ATTC 26278, the “minimum inhibiting concentration (MIC), C. albicans ATTC 26278” value worked out at 400 µg/mL (≈ 1260 µM). Further, in the assay with C. albicans 2043, the “minimum inhibiting concentration (MIC), C. albicans 2043” value is 500 µg/mL (≈ 1580 µM). Besides, the “minimum inhibiting concentration (MIC), C. krusei” value in the assay with C. krusei turned out to be 800 µg/mL (≈ 2530 µM). In addition, the “minimum inhibiting concentration (MIC), C. glabrata” value in the assay on C. glabrata is 1000 µg/mL (≈ 3160 µM). Further, the “minimum inhibiting concentration (MIC), C. famata 1940” value with C. famata 1940 is 500 µg/mL (≈ 1580 µM).
In the case of `CCC[C@H](NC(=O)[C@@H](N)CCCCN)C(=O)N[C@@H](CNC(=O)[C@@H]1O[C@H]1C(N)=O)C(=O)O` (relative stereo) [Lys--Nva--EADP, N^2 -L-Lysyl-L-norvalyl-N^3 -D-trans-2,3-epoxysuccinamoyl-L-2,3-diaminopropanoic acid], the “minimum inhibiting concentration (MIC), C. albicans ATTC 26278” value with C. albicans ATTC 26278 was determined as 200 µg/mL (≈ 450 µM). In addition, the “minimum inhibiting concentration (MIC), C. albicans 2043” value with C. albicans 2043 was 250 µg/mL (≈ 562 µM). Moreover, the “minimum inhibiting concentration (MIC), C. krusei” value in the assay with C. krusei amounted to 750 µg/mL (≈ 1690 µM). Besides, the “minimum inhibiting concentration (MIC), C. glabrata” value with C. glabrata turned out to be 500 µg/mL (≈ 1120 µM). In the assay with C. famata 1940, the “minimum inhibiting concentration (MIC), C. famata 1940” value is 500 µg/mL (≈ 1120 µM).
As to `CCC[C@H](N)C(=O)N[C@@H](CNC(=O)[C@@H]1O[C@H]1C(N)=O)C(=O)O` (racemic) [Nva--DL--EADP, N^2 -L-Norvalyl-N^3 -DL-trans-2,3-epoxysuccinamoyl-L-2,3-diaminopropanoic acid], in the assay on C. albicans ATTC 26278, the “minimum inhibiting concentration (MIC), C. albicans ATTC 26278” value amounted to 250 µg/mL (≈ 790 µM). Also, the “minimum inhibiting concentration (MIC) against Candida albicans ATCC 26278” value with C. albicans ATTC 26278 (setting [1]) came to 0.25 µg/mL (≈ 0.79 µM). For the same molecule, the “minimum inhibiting concentration (MIC), C. albicans 2043” value with C. albicans 2043 turned out to be 250 µg/mL (≈ 790 µM). For the same molecule, the “minimum inhibiting concentration (MIC), C. krusei” value in the assay on C. krusei was determined as 350 µg/mL (≈ 1110 µM). In addition, the “minimum inhibiting concentration (MIC), C. glabrata” value with C. glabrata is 750 µg/mL (≈ 2370 µM). The “minimum inhibiting concentration (MIC), C. famata 1940” value in the assay with C. famata 1940 was 500 µg/mL (≈ 1580 µM).
`CCC[C@H](NC(=O)[C@@H](N)CNC(=O)[C@@H]1O[C@H]1C(N)=O)C(=O)O` (racemic) [DL--EADP--Nva, N^3 -DL-trans-2,3-Epoxysuccinamoyl-L-2,3-diaminopropionyl-L-norvaline]: in the assay on C. albicans ATTC 26278, the “minimum inhibiting concentration (MIC), C. albicans ATTC 26278” value was determined as 500 µg/mL (≈ 1580 µM). Moreover, in the assay on C. albicans 2043, the “minimum inhibiting concentration (MIC), C. albicans 2043” value turned out to be 750 µg/mL (≈ 2370 µM). Further, the “minimum inhibiting concentration (MIC), C. krusei” value in the assay on C. krusei stood at 1000 µg/mL (≈ 3160 µM). Also, the “minimum inhibiting concentration (MIC), C. glabrata” value in the assay on C. glabrata was 1250 µg/mL (≈ 3950 µM). The “minimum inhibiting concentration (MIC), C. famata 1940” value in the assay with C. famata 1940 came to 750 µg/mL (≈ 2370 µM).
